This test concerns the target Human immunodeficiency virus type 1 reverse transcriptase (Human immunodeficiency virus 1, UniProt Q72547). Description: Inhibition of HIV-1 reverse transcriptase.
In general, IC50 refers to the concentration needed to halve the response being measured. A low value points to higher potency. In turn, `CC(C)=CCN1Cc2cccc3nc(O)n(c23)C[C@@H]1C` returned an IC50 of 3160 nM.
For `CC(C)=CCN1Cc2c(Cl)ccc3[nH]c(=S)n(c23)C[C@@H]1C` [TIVIRAPINE], the IC50 was 4.3 nM. This IC50 lies about 730-fold lower than the previous one.
`COc1ccc2[nH]c(=S)n3c2c1CN(CC=C(C)C)[C@@H](C)C3`: the IC50 is 33.9 nM.
To `C#Cc1ccc2[nH]c(=O)n3c2c1CN(CC=C(C)C)[C@@H](C)C3` belongs 437 nM; to `CC(C)=CCN1Cc2c(C)ccc3[nH]c(=S)n(c23)C[C@@H]1C`, 13.6 nM; to `CC(C)=CCN1Cc2c(F)ccc3[nH]c(=S)n(c23)C[C@@H]1C`, 5.8 nM.
For `CC(C)=CCN1Cc2cccc3[nH]c(=S)n(c23)C[C@@H]1C` the value was 44 nM.
`C#Cc1ccc2[nH]c(=S)n3c2c1CN(CC=C(C)C)[C@@H](C)C3` gave an IC50 of 29.5 nM. This IC50 and that of the molecule before are within 1.5-fold of each other.
For `CC(C)=CCN1Cc2c(C)ccc3[nH]c(=O)n(c23)C[C@@H]1C` the value was 989 nM; for `CC(C)=CCN1Cc2cc(Cl)cc3[nH]c(=S)n(c23)C[C@@H]1C`, 34 nM; for `CC(C)=CCN1Cc2c(C#N)ccc3[nH]c(=O)n(c23)C[C@@H]1C`, 1140 nM.
To `CC(C)=CCN1Cc2c(C#N)ccc3[nH]c(=S)n(c23)C[C@@H]1C` belongs 56.3 nM.

For the origin of these results see ChEMBL document CHEMBL1131439, “Prediction of binding affinities for TIBO inhibitors of HIV-1 reverse transcriptase using Monte Carlo simulations in a linear response method” (J Med Chem, 1998).
